Values of other authors as cited in patent publication US11291812B2, “Sinus delivery of sustained release therapeutics” (Intersect ENT, Inc., priority 2003, dated 2022).

Tested on: sinusitis
Conditions: ampicillin delivered from a poly(lactic-co-glycolic)acid (PLGA) film placed in rabbit maxillary sinus

In the case of `CC1(C)S[C@@H]2[C@H](NC(=O)[C@H](N)c3ccccc3)C(=O)N2[C@H]1C(=O)O` [ampicillin], the “clinical signs of sinusitis” value is listed as “improved”.
